Patent US20140121231A1, “PYRANOPYRIDONE INHIBITORS OF TANKYRASE” (Hoffmann-La Roche, Inc., priority 2012, published 2014)
Where a name gives a salt, the structure may show the parent alone.

What was measured:
Tankyrase 1 (TNKS1) = biological target: T1, Tankyrase 1 (TNKS1) (Homo sapiens, UniProt O95271); experiment: μHTS-TNKS-IWR2 TR-FRET Binding Assay (Example 71), TNKS1
T1 construct: His6-TNKS1, MW=28.2 KDa (construct: 1088-1327, 1266M)
Procedure: (§1) μHTS-TNKS-IWR2 TR-FRET Binding Assay (10 μL/well in BD1536-well plate, a single point)
(§2) Assay buffer 1a (AB1a) for TNKS dilution: 50 mM Tris, pH 7.4, 100 mM sodium chloride solution, 1 mM magnesium chloride solution, 1 mM DL-dithiothreitol solution, 0.2 mg/mL bovine serum albumin solution, 0.025% NP-40. Assay buffer 1b (AB 1b) for Biotin-IWR2 dilution: 50 mM Tris, pH 7.4, 100 mM sodium chloride solution, 1 mM magnesium chloride solution, 1 mM DL-dithiothreitol solution, 0.2 mg/mL bovine serum albumin solution, 0.05% NP-40 Assay buffer 1c (AB 1c) for compound dilution: 50 mM Tris, pH 7.4, 100 mM sodium chloride solution, 1 mM magnesium chloride solution, 1 mM DL-dithiothreitol solution, 0.2 mg/mL bovine serum albumin solution Assay buffer 2 (AB2) for Eu/APC: 50 mM Tris, pH 7.4, 100 mM sodium chloride solution, 1 mM magnesium chloride solution, 0.2 mg/mL bovine serum albumin solution
(§3) Transfer 3 μL/well of above solution (solution 1,2,3) to an empty assay plate (BD1536-well plate) as follows: TOTAL and cpd wells: Solution 1 (Biotin-IWR2): BLANK wells: Solution 2 (No Biotin-IWR2): POSITIVE CONTROL wells: Solution 3 (Biotin-IWR2XAV939) Transfer 3 μL/well of the above diluted compound solutions or compound dilution buffer to the above assay plate. Add 2 μL/well of 300 nM TNKS stock solution (4) to every well in the above assay plate. Centrifuge the assay plate at 2100 rpm for 2 min. Incubate the assay plate at 26° C. for 30 minutes. Add 2 μL/well 3.5 nMEu/50 nM APC solution (5) to every well in the above assay plate. Centrifuge the assay plate at 2100 rpm for 2 min. Incubate the assay plate at 26° C. for 60 min.

tankyrase 2 (His6-TNKS2) = biological target: T2, tankyrase 2 (His6-TNKS2) (Homo sapiens, UniProt Q9H2K2); experiment: μHTS-TNKS-IWR2 TR-FRET Binding Assay (Example 71), TNKS2; conditions: footnote 1: Tankyrase 1 and 2 inhibition assay in Example 71 (TR-FRET)
T2 construct: His6-tankyrase 2 (construct: 934-1166) (His6-TNKS2)
T2 sequence (Q9H2K2 934-1166): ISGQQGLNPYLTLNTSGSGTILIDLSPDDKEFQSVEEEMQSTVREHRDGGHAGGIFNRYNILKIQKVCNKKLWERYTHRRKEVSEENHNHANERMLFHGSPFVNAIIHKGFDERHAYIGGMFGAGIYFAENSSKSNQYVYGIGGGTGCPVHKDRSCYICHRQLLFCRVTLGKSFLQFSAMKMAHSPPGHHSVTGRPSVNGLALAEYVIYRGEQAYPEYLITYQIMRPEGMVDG
Procedure: as §1
Biotin-4-((1S,2R,6S,7R)-3,5-Dioxo-4-aza-tricyclo[5.2.1.0*2,6*]dec-8-en-4-yl)-N-(4-methyl-quinolin-8-yl)-benzamide (Biotin-IWR2): 10 mM Biotin-IWR2 stock in DMSO, stored at −20° C. Positive control: 10 mM 2-(4-Trifluoromethyl-phenyl)-3,5,7,8-tetrahydro-thiopyrano[4,3-d]pyrimidin-4-one (XAV939) in DMSO, stored at −20° C.
as §2, §3

[1] = biological target: T3, PARP1 (His6-PARP1, full length) (Homo sapiens, UniProt P09874); experiment: TR-FRET Binding Assay (Example 71), PARP1; conditions: TR-FRET assay of Example 71 with His6-PARP1
T3 construct: His6-PARP1 (full length) can be substituted for His6-TNKS 1
T3 sequence (P09874 whole entry, species assumed): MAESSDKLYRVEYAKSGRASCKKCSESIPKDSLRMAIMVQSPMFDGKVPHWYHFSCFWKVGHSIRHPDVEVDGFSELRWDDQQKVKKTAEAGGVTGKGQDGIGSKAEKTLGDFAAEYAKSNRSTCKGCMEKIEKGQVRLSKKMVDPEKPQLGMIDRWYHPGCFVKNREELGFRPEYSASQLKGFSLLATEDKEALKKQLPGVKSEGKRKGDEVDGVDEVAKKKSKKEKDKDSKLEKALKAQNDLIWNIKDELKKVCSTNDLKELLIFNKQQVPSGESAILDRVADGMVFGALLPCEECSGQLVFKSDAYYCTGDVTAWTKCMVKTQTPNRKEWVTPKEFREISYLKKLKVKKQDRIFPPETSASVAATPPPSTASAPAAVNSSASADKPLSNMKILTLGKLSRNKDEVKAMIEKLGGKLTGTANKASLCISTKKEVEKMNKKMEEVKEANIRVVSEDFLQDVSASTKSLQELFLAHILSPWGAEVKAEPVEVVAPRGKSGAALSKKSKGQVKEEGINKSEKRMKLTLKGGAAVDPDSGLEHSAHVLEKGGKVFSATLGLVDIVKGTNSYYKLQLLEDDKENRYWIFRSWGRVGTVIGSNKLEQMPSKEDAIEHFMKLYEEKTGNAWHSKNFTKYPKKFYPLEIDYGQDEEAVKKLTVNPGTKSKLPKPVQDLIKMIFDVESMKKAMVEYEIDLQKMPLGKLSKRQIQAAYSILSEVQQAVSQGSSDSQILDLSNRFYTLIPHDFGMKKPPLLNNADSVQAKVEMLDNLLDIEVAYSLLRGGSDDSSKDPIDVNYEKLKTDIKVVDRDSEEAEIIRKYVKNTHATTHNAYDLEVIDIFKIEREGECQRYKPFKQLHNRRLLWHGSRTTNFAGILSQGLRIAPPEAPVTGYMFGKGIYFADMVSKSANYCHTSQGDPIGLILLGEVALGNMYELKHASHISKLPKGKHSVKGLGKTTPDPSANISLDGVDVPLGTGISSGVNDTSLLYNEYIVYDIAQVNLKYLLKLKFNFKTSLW
Procedure: as §1
Tankyrase 1 (TNKS1): 184.3 μM=5.2 mg/mL His6-TNKS1, MW=28.2 KDa (construct: 1088-1327, 1266M) in 20 mM Tris pH 8, 150 mM NaCl, 10% glycerol, and 0.5 mM TCEP. Alternatively, His6-tankyrase 2 (construct: 934-1166) (His6-TNKS2) or His6-PARP1 (full length) can be substituted for His6-TNKS 1.
as §2
Prepare Biotinylated IWR2 stock solution (3.33× stock) for TOTL and compound wells: 200 nM Biotin-IWR2 in 5% DMSO/AB1b buffer
Prepare BLANK well stock solution: 5% DMSO/AB1b buffer Prepare POSITIVE CONTROL well stock solution (3.33× stock): 200 nM XAV939 in 200 nM Biotin-IWR2/5% DMSO/AB1b buffer Prepare TNKS1 stock solution (5× stock): 300 nM TNKS in AB1a buffer. (Alternatively, use TNKS2 or PARP1 stock solutions.) Prepare Eu/APC stock solution (5× stock): 3.5 nM Eu-SA/50 nM APC-His6Ab in AB2 buffer.
Add 25 μL/well 1.5% DMSO/AB1c buffer in each compound well to the compound concentration at 74 μM in 8.8% DMSO/AB1c buffer or in the 2 μL DMSO CONTROL wells (BLANK, TOTAL and POSITIVE wells) in the compound plate. Transfer 3 μL/well of above solution (solution 1,2,3) to an empty assay plate (BD1536-well plate) as follows: TOTAL and cpd wells: Solution 1 (Biotin-IWR2): BLANK wells: Solution 2 (No Biotin-IWR2): POSITIVE CONTROL wells: Solution 3 (Biotin-IWR2XAV939) Transfer 3 μL/well of the above diluted compound solutions or compound dilution buffer to the above assay plate. Add 2 μL/well of 300 nM TNKS stock solution (4) to every well in the above assay plate. Centrifuge the assay plate at 2100 rpm for 2 min. Incubate the assay plate at 26° C. for 30 minutes. Add 2 μL/well 3.5 nMEu/50 nM APC solution (5) to every well in the above assay plate. Centrifuge the assay plate at 2100 rpm for 2 min. Incubate the assay plate at 26° C. for 60 min. Read the assay plate immediately at excitation wavelength of 330 nm and emission wavelength of […] in time resolved fluorescence mode.
. Representative compound data for the PARP1 assay is in TABLE 2 (below) Values are in μM.

T1 sequence (O95271 1088-1327): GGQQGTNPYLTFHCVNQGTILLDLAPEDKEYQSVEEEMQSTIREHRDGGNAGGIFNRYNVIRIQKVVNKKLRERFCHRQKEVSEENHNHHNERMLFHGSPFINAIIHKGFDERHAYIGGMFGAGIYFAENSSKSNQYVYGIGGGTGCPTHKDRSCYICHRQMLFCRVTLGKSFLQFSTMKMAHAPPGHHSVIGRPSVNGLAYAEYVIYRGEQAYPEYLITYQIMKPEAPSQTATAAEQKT

SMILES	IC50 (Tankyrase 1 (TNKS1)) [µM]	IC50 (tankyrase 2 (His6-TNKS2)) [µM]	IC50 [1] [µM]
CC(C)OC(=O)N1CCC(C2Cc3[nH]c(=O)c4ccccc4c3CO2)CC1 (racemic) [Compound I-32, rac-4-(9-Oxo-1,4,9,10-tetrahydro-2H-3-oxa-10-aza-phenanthren-2-yl)-piperidine-1-carboxylic acid isopropyl ester]	0.0308	0.0405	0.0818
CC(C)(C)OC(=O)N1CCC(C2Cc3[nH]c(=O)c4cccnc4c3CO2)CC1 (stereo not drawn) [Compound I-51, tert-butyl 4-(5-oxo-6 7 8 10-tetrahydropyrano[4 3-h][l 6]naphthyridin-8-yl)piperidine-1-carboxylate]	0.039	0.0498	0.363
CC(C)C1Cc2[nH]c(=O)c3ccc(Cl)cc3c2CO1 (racemic) [Compound I-27, rac-6-Chloro-2-isopropyl-1,2,4,10-tetrahydro-3-oxa-10-aza-phenanthren-9-one]	0.0391	0.0535	0.197
O=C(C1CC1)N1CCC(C2Cc3[nH]c(=O)c4ccccc4c3CO2)C1 (stereo not drawn) [Compound I-44, 2-(1-Cyclopropanecarbonyl-pyrrolidin-3-yl)-1,2,4,10-tetrahydro-3-oxa-10-aza-phenanthren-9-one]	0.0422	0.0656	0.0673
CC(C)C1Cc2[nH]c(=O)c3ccc([N+](=O)[O-])cc3c2CO1 (racemic) [Compound I-16, rac-2-Isopropyl-6-nitro-1,2,4,10-tetrahydro-3-oxa-10-aza-phenanthren-9-one]	0.404	2.7	0.0356
CC(C)(C)OC(=O)N1CCC(C2Cc3[nH]c(=O)c4ccccc4c3CO2)C1 (stereo not drawn) [Compound I-35, 3-(9-Oxo-1,4,9,10-tetrahydro-2H-3-oxa-10-aza-phenanthren-2-yl)-pyrrolidine-1-carboxylic acid tert-butyl ester]	0.0379	0.056	0.0699
CC(C)C1Cc2[nH]c(=O)c3ccc(C(N)=O)cc3c2CO1 (racemic) [Compound I-23, rac-2-Isopropyl-9-oxo-1,4,9,10-tetrahydro-2H-3-oxa-10-aza-phenanthrene-6-carboxylic acid amide]	0.0886	0.243	2.03
CC(C)C1Cc2[nH]c(=O)c3ccc(N)cc3c2CO1 (racemic) [Compound I-24, rac-6-Amino-2-isopropyl-1,2,4,10-tetrahydro-3-oxa-10-aza-phenanthren-9-one]	0.473	1.3	0.0634
Cc1cccc2c(=O)[nH]c3c(c12)COC(C1CCOCC1)C3 (racemic) [Compound I-60, rac-5-Methyl-2-(tetrahydro-pyran-4-yl)-1,2,4,10-tetrahydro-3-oxa-10-aza-phenanthren-9-one]	0.0241	0.0179	0.0797
CC1(C2Cc3[nH]c(=O)c4ccccc4c3CO2)CCCCC1 (racemic) [Compound I-20, rac-2-(1-Methyl-cyclohexyl)-1,2,4,10-tetrahydro-3-oxa-10-aza-phenanthren-9-one]	0.0255	0.0305	0.0611
O=C(C1CCOCC1)N1CCC(C2Cc3[nH]c(=O)c4ccccc4c3CO2)CC1 (racemic) [Compound I-50, rac-2-[1-(Tetrahydro-pyran-4-carbonyl)-piperidin-4-yl]-1,2,4,10-tetrahydro-3-oxa-10-aza-phenanthren-9-one]	0.0356	0.0442	0.104
Cc1cccc2c(=O)[nH]c3c(c12)COC(C1CCN(C(=O)C2(C)CC2)CC1)C3 (racemic) [Compound I-61, rac-5-Methyl-2-[1-(1-methyl-cyclopropanecarbonyl)-piperidin-4-yl]-1,2,4,10-tetrahydro-3-oxa-10-aza-phenanthren-9-one]	0.0175	0.021	0.0259
CC(C)(C)OC(=O)N1CCC([C@@H]2Cc3[nH]c(=O)c4ccccc4c3CO2)CC1 (single isomer, unassigned) [Compound I-54]	0.0214	0.0257	0.115
CC1(C(=O)N2CCC(C3Cc4[nH]c(=O)c5ccccc5c4CO3)CC2)CC1 (racemic) [Compound I-46, rac-2-[1-(1-Methyl-cyclopropanecarbonyl)-piperidin-4-yl]-1,2,4,10-tetrahydro-3-oxa-10-aza-phenanthren-9-one]	0.0332	0.0443	0.0871
CC(C)C1Cc2[nH]c(=O)c3sccc3c2CO1 (racemic) [Compound I-5, rac-7-Isopropyl-5,6,7,9-tetrahydro-8-oxa-3-thia-5-aza-cyclopenta[a]naphthalen-4-one]	0.0703	0.0921	0.0829
CC1(C(=O)N2CCC(C3Cc4[nH]c(=O)c5cccnc5c4CO3)CC2)CC1 (racemic) [Compound I-57, rac-2-[1-(1-methyl-cyclopropanecarbonyl)-piperidin-4-yl]-1,2,4,10-tetrahydro-3-oxa-5,10-diaza-phenanthren-9-one]	0.0402	0.0455	0.0386
Cc1cncc2c(=O)[nH]c3c(c12)COC(C(C)(C)C)C3 (racemic) [Compound I-58, rac-7-tert-Butyl-4-methyl-5,7,8,9-tetrahydro-6-oxa-2,9-diaza-phenanthren-10-one]	0.0259	0.0257	0.328
CC(=O)N1CCC(C2Cc3[nH]c(=O)c4ccccc4c3CO2)C1 (stereo not drawn) [Compound I-37, 2-(1-Acetyl-pyrrolidin-3-yl)-1,2,4,10-tetrahydro-3-oxa-10-aza-phenanthren-9-one]	0.0499	0.0674	0.104
O=c1[nH]c2c(c3ccccc13)COC(C1CCNCC1)C2 (racemic) [Compound I-22, rac-2-Piperidin-4-yl-1,2,4,10-tetrahydro-3-oxa-10-aza-phenanthren-9-one, trifluoroacetate]	0.0888	0.109	> 50
CC(C)(C)C1Cc2[nH]c(=O)c3ccncc3c2CO1 (racemic) [Compound I-34, rac-7-tert-Butyl-4a,5,7,8,9,10a-hexahydro-6-oxa-3,9-diaza-phenanthren-10-one]	0.0849	0.183	3.47
